According to US20070128217A1 (priority 2003, published 2007):

What was measured:
[1] = system: antibodies in sera from SARS patients (sera 1a, 1b, 2, 6, 37, 62, London, SARS-yellow, SARS-green); format: binding, human; design: Binding of serum 6 to linear peptides of protein X1 of SARS-CoV Urbani / Binding of serum 37 to linear peptides of protein X1 of SARS-CoV Urbani / Binding of serum 6 to looped/cyclic peptide (PEPSCAN-ELISA) / Binding of serum 37 to looped/cyclic peptide (PEPSCAN-ELISA) / Binding of serum 37 to looped/cyclic peptides of protein X1 of SARS-CoV Urbani / Binding of serum 6 to linear peptides of protein X2 / Binding of serum 37 to linear peptides of protein X2 / Binding of serum 37 to looped/cyclic peptides of protein X2 of SARS-CoV Urbani / Binding of serum 6 to linear peptides of protein M of SARS-CoV Urbani / Binding of serum 37 to linear peptides of protein M of SARS-CoV Urbani / Binding of serum 6 to looped/cyclic peptides of protein M of SARS-CoV Urbani / Binding of serum 37 to looped/cyclic peptides of protein M of SARS-CoV Urbani / Binding of serum 6 to linear peptides of protein X3 of SARS-CoV Urbani / Binding of serum 37 to linear peptides of protein X3 of SARS-CoV Urbani / Binding of serum 37 to looped/cyclic peptides of protein X3 of SARS-CoV Urbani / Binding of serum 6 to linear peptides of protein X4 of SARS-CoV Urbani / Binding of serum 37 to linear peptides of protein X4 of SARS-CoV Urbani / Binding of serum 37 to looped/cyclic peptides of protein X4 of SARS-CoV Urbani / Binding of serum 6 to linear peptides of protein X5 of SARS-CoV Urbani / Binding of serum 37 to linear peptides of protein X5 of SARS-CoV Urbani / Binding of serum 37 to looped/cyclic peptides of protein X5 of SARS-CoV Urbani / Binding of serum 6 to linear peptides of protein N of SARS-CoV Urbani / Binding of serum 37 to linear peptides of protein N of SARS-CoV Urbani / Binding of serum 6 to linear peptide (PEPSCAN-ELISA) / Binding of serum 1a to looped/cyclic peptides of protein N of SARS-CoV Urbani / Binding of serum 1b to looped/cyclic peptides of protein N of SARS-CoV Urbani / Binding of serum 2 to looped/cyclic peptides of protein N of SARS-CoV Urbani / Binding of serum 6 to looped/cyclic peptides of protein N of SARS-CoV Urbani / Binding of serum 37 to looped/cyclic peptides of protein N of SARS-CoV Urbani / Binding of serum 62 to looped/cyclic peptides of protein N of SARS-CoV Urbani / Binding of serum London to looped/cyclic peptides of protein N of SARS-CoV Urbani / Binding of serum SARS-green to looped/cyclic peptides of protein N of SARS-CoV Urbani: unit not given here
[2] = system: control sera (pooled serum of ten healthy LUMC hospital workers; commercial negative donor pooled serum from the Dutch bloodbank); format: binding, human; design: Binding of Control serum LUMC to linear peptides / Binding of Control serum Blood-bank to linear peptides / Binding of Control serum LUMC to looped peptides / Binding of Control Serum Blood-Bank to Looped peptides / Binding of Control serum LUMC to linear peptides of the protein M of SARS-CoV Urbani / Binding of Control serum Blood-bank to linear peptides of the protein M of SARS-CoV Urbani / Binding of Control serum LUMC to looped peptides of the protein M of SARS-CoV Urbani / Binding of Control Serum Blood-Bank to Looped peptides of the protein M of SARS-CoV Urbani: unit not given here
[3] = system: rabbit serum obtained by immunizing a rabbit with the SARS-CoV strain Frankfurt 1; format: binding; design: Binding of a rabbit serum to linear peptides / Binding of a rabbit serum to looped peptides / Rabbit serum linear peptides / Rabbit serum looped peptides / Binding of a rabbit serum to linear peptides of protein N of SARS-CoV Urbani (Rabbit serum linear peptides) / Binding of a rabbit serum to looped/cyclic peptides of protein N of SARS-CoV Urbani (Rabbit serum looped peptides): unit not given here

GIENATFFIFNKLVK
Binding of serum 1a to linear peptides of protein X1 of SARS-CoV Urbani [1]: 0.6
Binding of serum 1a to looped/cyclic peptides of protein X1 of SARS-CoV Urbani [1]: 0.6
Binding of serum 1b to linear peptides of protein X1 of SARS-CoV Urbani [1]: 0.5
Binding of serum 1b to looped/cyclic peptides of protein X1 of SARS-CoV Urbani [1]: 0.4
Binding of serum 2 to linear peptides of protein X1 of SARS-CoV Urbani [1]: 0.5
Binding of serum 2 to looped/cyclic peptides of protein X1 of SARS-CoV Urbani [1]: 0.5
Binding of serum 6 to linear peptides of protein X1 of SARS-CoV Urbani [1]: 0.5
Binding of serum 6 to looped/cyclic peptides of protein X1 of SARS-CoV Urbani [1]: 0.5
Binding of serum 37 to linear peptides of protein X1 of SARS-CoV Urbani [1]: 0.6
Binding of serum 37 to looped/cyclic peptides of protein X1 of SARS-CoV Urbani [1]: 0.6
Binding of serum 62 to linear peptides of protein X1 of SARS-CoV Urbani [1]: 0.6
Binding of serum 62 to looped/cyclic peptides of protein X1 of SARS-CoV Urbani [1]: 0.6
Binding of serum London to linear peptides of protein X1 of SARS-CoV Urbani [1]: 0.3
Binding of serum London to looped/cyclic peptides of protein X1 of SARS-CoV Urbani [1]: 0.2
Binding of serum SARS-green to linear peptides of protein X1 of SARS-CoV Urbani [1]: 0.2
Binding of serum SARS-green to looped/cyclic peptides of protein X1 of SARS-CoV Urbani [1]: 0.2
Binding of serum SARS-yellow to linear peptides of protein X1 of SARS-CoV Urbani [1]: 0.5
Binding of serum SARS-yellow to looped/cyclic peptides of protein X1 of SARS-CoV Urbani [1]: 0.5
Binding of Control Serum Blood-Bank to Looped peptides [2]: 0.5
Binding of Control serum Blood-bank to linear peptides [2]: 0.6
Binding of Control serum LUMC to linear peptides [2]: 0.5
Binding of Control serum LUMC to looped peptides [2]: 0.5
Binding of a rabbit serum to linear peptides [3]: 0.1
Binding of a rabbit serum to looped peptides [3]: 0.6

GLMWLSYFVASFRLF
Binding of serum 1a to linear peptides of protein M of SARS-CoV Urbani [1]: 0.7
Binding of serum 1a to looped/cyclic peptides of protein M of SARS-CoV Urbani [1]: 0.6
Binding of serum 1b to linear peptides of protein M of SARS-CoV Urbani [1]: 0.4
Binding of serum 1b to looped/cyclic peptides of protein M of SARS-CoV Urbani [1]: 0.2
Binding of serum 2 to linear peptides of protein M of SARS-CoV Urbani [1]: 0.4
Binding of serum 2 to looped/cyclic peptides of protein M of SARS-CoV Urbani [1]: 0.6
Binding of serum 6 to linear peptides of protein M of SARS-CoV Urbani [1]: 0.6
Binding of serum 6 to looped/cyclic peptides of protein M of SARS-CoV Urbani [1]: 0.8
Binding of serum 37 to linear peptides of protein M of SARS-CoV Urbani [1]: 0.5
Binding of serum 37 to looped/cyclic peptides of protein M of SARS-CoV Urbani [1]: 0.5
Binding of serum 62 to linear peptides of protein M of SARS-CoV Urbani [1]: 0.6
Binding of serum 62 to looped/cyclic peptides of protein M of SARS-CoV Urbani [1]: 0.6
Binding of serum London to linear peptides of protein M of SARS-CoV Urbani [1]: 0.4
Binding of serum London to looped/cyclic peptides of protein M of SARS-CoV Urbani [1]: 0.3
Binding of serum SARS-green to linear peptides of protein M of SARS-CoV Urbani [1]: 0.3
Binding of serum SARS-green to looped/cyclic peptides of protein M of SARS-CoV Urbani [1]: 0.3
Binding of serum SARS-yellow to linear peptides of protein M of SARS-CoV Urbani [1]: 0.1
Binding of serum SARS-yellow to looped/cyclic peptides of protein M of SARS-CoV Urbani [1]: 0.7
Binding of Control Serum Blood-Bank to Looped peptides of the protein M of SARS-CoV Urbani [2]: 0.7
Binding of Control serum Blood-bank to linear peptides of the protein M of SARS-CoV Urbani [2]: 0.6
Binding of Control serum LUMC to linear peptides of the protein M of SARS-CoV Urbani [2]: 0.2
Binding of Control serum LUMC to looped peptides of the protein M of SARS-CoV Urbani [2]: 0.6
Rabbit serum linear peptides [3]: 0.2
Rabbit serum looped peptides [3]: 0.2

GNTYSTAWLCALGKV
Binding of serum 1a to linear peptides of protein X5 of SARS-CoV Urbani [1]: 0.8
Binding of serum 1a to looped/cyclic peptides of protein X5 of SARS-CoV Urbani [1]: 0.4
Binding of serum 1b to linear peptides of protein X5 of SARS-CoV Urbani [1]: 0.6
Binding of serum 1b to looped/cyclic peptides of protein X5 of SARS-CoV Urbani [1]: 0.2
Binding of serum 2 to linear peptides of protein X5 of SARS-CoV Urbani [1]: 0.9
Binding of serum 2 to looped/cyclic peptides of protein X5 of SARS-CoV Urbani [1]: 0.5
Binding of serum 6 to linear peptides of protein X5 of SARS-CoV Urbani [1]: 0.6
Binding of serum 6 to looped/cyclic peptides of protein X5 of SARS-CoV Urbani [1]: 0.3
Binding of serum 37 to linear peptides of protein X5 of SARS-CoV Urbani [1]: 0.7
Binding of serum 37 to looped/cyclic peptides of protein X5 of SARS-CoV Urbani [1]: 0.5
Binding of serum 62 to linear peptides of protein X5 of SARS-CoV Urbani [1]: 0.8
Binding of serum 62 to looped/cyclic peptides of protein X5 of SARS-CoV Urbani [1]: 0.7
Binding of serum London to linear peptides of protein X5 of SARS-CoV Urbani [1]: 0.7
Binding of serum London to looped/cyclic peptides of protein X5 of SARS-CoV Urbani [1]: 0.2
Binding of serum SARS-green to linear peptides of protein X5 of SARS-CoV Urbani [1]: 0.6
Binding of serum SARS-green to looped/cyclic peptides of protein X5 of SARS-CoV Urbani [1]: 0.3
Binding of serum SARS-yellow to linear peptides of protein X5 of SARS-CoV Urbani [1]: 0.4
Binding of serum SARS-yellow to looped/cyclic peptides of protein X5 of SARS-CoV Urbani [1]: 0.5
Binding of Control Serum Blood-Bank to Looped peptides [2]: 0.4
Binding of Control serum Blood-bank to linear peptides [2]: 0.9
Binding of Control serum LUMC to linear peptides [2]: 0.5
Binding of Control serum LUMC to looped peptides [2]: 0.6
Rabbit serum linear peptides [3]: 0.9
Rabbit serum looped peptides [3]: 0.6

GTDSGFAAYNRYRIG
Binding of serum 1a to linear peptides of protein M of SARS-CoV Urbani [1]: 0.6
Binding of serum 1a to looped/cyclic peptides of protein M of SARS-CoV Urbani [1]: 0.8
Binding of serum 1b to linear peptides of protein M of SARS-CoV Urbani [1]: 0.4
Binding of serum 1b to looped/cyclic peptides of protein M of SARS-CoV Urbani [1]: 0.5
Binding of serum 2 to linear peptides of protein M of SARS-CoV Urbani [1]: 0.4
Binding of serum 2 to looped/cyclic peptides of protein M of SARS-CoV Urbani [1]: 0.6
Binding of serum 6 to linear peptides of protein M of SARS-CoV Urbani [1]: 0.7
Binding of serum 6 to looped/cyclic peptides of protein M of SARS-CoV Urbani [1]: 0.8
Binding of serum 37 to linear peptides of protein M of SARS-CoV Urbani [1]: 0.6
Binding of serum 37 to looped/cyclic peptides of protein M of SARS-CoV Urbani [1]: 0.7
Binding of serum 62 to linear peptides of protein M of SARS-CoV Urbani [1]: 0.5
Binding of serum 62 to looped/cyclic peptides of protein M of SARS-CoV Urbani [1]: 0.6
Binding of serum London to linear peptides of protein M of SARS-CoV Urbani [1]: 0.3
Binding of serum London to looped/cyclic peptides of protein M of SARS-CoV Urbani [1]: 0.3
Binding of serum SARS-green to linear peptides of protein M of SARS-CoV Urbani [1]: 0.4
Binding of serum SARS-green to looped/cyclic peptides of protein M of SARS-CoV Urbani [1]: 0.4
Binding of serum SARS-yellow to linear peptides of protein M of SARS-CoV Urbani [1]: 0.2
Binding of serum SARS-yellow to looped/cyclic peptides of protein M of SARS-CoV Urbani [1]: 0.9
Binding of Control Serum Blood-Bank to Looped peptides of the protein M of SARS-CoV Urbani [2]: 0.6
Binding of Control serum Blood-bank to linear peptides of the protein M of SARS-CoV Urbani [2]: 0.7
Binding of Control serum LUMC to linear peptides of the protein M of SARS-CoV Urbani [2]: 0.5
Binding of Control serum LUMC to looped peptides of the protein M of SARS-CoV Urbani [2]: 0.7
Rabbit serum linear peptides [3]: 0.2
Rabbit serum looped peptides [3]: 0.4
